Source: patent US10231980B2, “Cortexolone 17alpha-benzoate for use in the treatment of tumours” (COSMO TECHNOLOGIES LTD., priority 2014, dated 2019)
Where two headings read alike, the source gives them in different places.

What was measured:
LNCaP (AR+) = test: ATP-dependent proliferation assay with 10 nM DHT, prostate cancer cells (Examples 1, 2); assay type: cell-based, human; conditions: Homo sapiens, LNCaP/AR
Description: (§1) The experiment was performed to test and to define the antitumor activity in vitro of cortexolone 17α-benzoate on LNCaP (AR^+) and PC3 (AR^−), representative of Prostatic cancer cell lines with Androgen receptor positive or negative expression, respectively. The experimental method consisted of: • 1. […] After 24 hrs, 10 nM DHT (dihydrotestosterone) with or without anti-androgen compounds, or DMSO vehicle (negative control) was added to the cultures. • 3.
(§2) Data from Experiment 1 was fitted through sigmoidal dose response curves and analyzed using Prizm statistical analysis software. […] The results from 2 sets of experiments follow.
as §1, with “define” for “define the”, “17α-valerate-21-propionate” for “17α-benzoate”, “hours,” for “hrs,”

PC3 (AR−) = test: as above; assay type: cell-based, human; conditions: Homo sapiens, PC3/AR
Description: as §1, §2
as §1, with “define” for “define the”, “17α-valerate-21-propionate” for “17α-benzoate”, “hours,” for “hrs,”

MiaPaca2 (AR low) = test: ATP-dependent proliferation assay with 10 nM DHT, pancreatic cancer cells (Examples 3, 4, 7); conditions: for IC50: Homo sapiens; for TI on Resting PBMC: IC50 resting PBMC / IC50 MiaPaca2; for TI on Stimulated PBMC: IC50 stimulated PBMC / IC50 MiaPaca2
Description: (§3) The experimental method consisted of: • 1. […] After 24 hrs, 10 nM DHT (dihydrotestosterone) with or without anti-androgen compounds, or DMSO vehicle (negative control) was added to the cultures. • 3.
(§4) Data from Experiment 1 were fitted through sigmoidal dose response curves and analyzed using Prizm statistical analysis software. […] The results from 2 sets of experiments follow.
(§5) Data from Experiment 1 was fitted through sigmoidal dose response curves and analyzed using Prizm statistical analysis software.

Panc1 (AR+) = test: as above; conditions: for IC50: Homo sapiens; for TI on Resting PBMC: IC50 resting PBMC / IC50 Panc1; for TI on Stimulated PBMC: IC50 stimulated PBMC / IC50 Panc1
Description: as §3, §4, §5

stimulated PBMC [1] = test: IC50 on stimulated (actively dividing) PBMC; assay type: cell-based, human; conditions: Homo sapiens, PBMC
Description: (§6) The compound toxicity was determined as follow:
(§7) Therapeutic Index=Safety/Potency=IC50 stimulated PBMC/IC50 cancer cell

resting PBMC = test: IC50 on resting (quiescent) PBMC; assay type: cell-based, human; conditions: Homo sapiens, PBMC
Description: The IC50 in PBMCs were tested in 2 different activation status: • stimulated—actively dividing cells • resting—quiescent, non-dividing cells
The IC50 in PBMCs were tested in 2 different activation status: • Stimulated—actively dividing cells • Resting—quiescent, non-dividing cells.
IC50 of the compounds was determined on fresh cells isolated from human blood (PBMC).

HT29 = test: MTT colorimetric assay on epithelial intestinal cancer cells; assay type: cell-based; conditions: for Therapeutic Index (TI), Resting PBMC: IC50 resting PBMC / IC50 HT29; for Therapeutic Index (TI), Stimulated PBMC: IC50 stimulated PBMC / IC50 HT29
Description: The experiment was performed to test and define anticancer activity in vitro of Cortexolone 17α-benzoate and cortexolone 17α-valerate, 21-propionate on cell lines representatives of epithelial intestinal tumours, namely HT29. The experiment method consisted in: • 1. Monolayer HT-29 cells were plated in: 96-wells plates at the density of 2×10^4 cells/mL. The cells plated were kept at 37° C. in 5% CO2 and left to attach for 24 h. • 2. […] After 72 h of treatment, the MTT colorimetric assay was performed.

LNCaP = test: ATP-dependent cell viability assay (Cell Titer Glo), Example 12; conditions: LNCaP; for IC50: Homo sapiens
Excerpt: (§8) Data shown in Table I were fitted through sigmoidal dose response curves and analyzed using Prizm statistical.

MiaPaca2 = test: as above; conditions: for IC50: Homo sapiens
Excerpt: as §8

PC3 = test: as above; conditions: for IC50: Homo sapiens
Excerpt: as §8

Panc1 = test: as above; conditions: for IC50: Homo sapiens
Excerpt: as §8

BxPC3 = test: In vitro proliferation, larger panel (Example 14); conditions: for IC50: Homo sapiens
Excerpt: as §8

MCF7 = test: In vitro proliferation / cytotoxic assay on breast cancer cells (Examples 14, 25); conditions: for IC50: Homo sapiens
Description: as §8
For the cytotoxic assay, cells were seeded in 96-well flat bottom culture plates in media containing charcoal stripped serum. After 24 hours, test compounds were added to the cells. DMSO was used as the vehicle negative control and RU486 as the positive control. After 72 hour incubation, cells were harvested and lysed to determine cell viability using the Cell Titer Glow assay.

7 cancer cell lines = test: Therapeutic index over a panel of cancer cell lines; assay type: cell-based; conditions: average over the cancer cell lines of Table VII
Description: as §6, §7

stimulated PBMC [2] = test: IC50 on stimulated (actively dividing) PBMC; assay type: cell-based, human; conditions: PBMC Stim; Table IV
[3] = Experiment 1, 0 = higher toxicity in PBMC
[4] = Homo sapiens, HT-29, 72 h, read-out: Inhibition (%) on HT29

C[C@]12CCC(=O)C=C1CC[C@@H]1[C@@H]2CC[C@@]2(C)[C@H]1CC[C@]2(OC(=O)c1ccccc1)C(=O)CO [CB-03-06, cortexolone 17α-benzoate]
IC50 (LNCaP (AR+)): 12 µM | IC50 (LNCaP (AR+); 72 h): 12 µM | IC50 (PC3 (AR−)): 28 µM | IC50 (PC3 (AR−); 72 h): 29 µM | IC50 (MiaPaca2 (AR low); MIA PaCa-2, 72 h, MiaPaca2, Experiment 1, sigmoidal dose response fit, 10 nM DHT, 3 days): 23 µM | IC50 (MiaPaca2 (AR low); MIA PaCa-2, MiaPaca2, Example 7, Experiment 1): 17 µM | IC50 (MiaPaca2 (AR low); MIA PaCa-2, MiaPaca2, Example 7, Experiment 2): 20 µM | IC50 (MiaPaca2 (AR low); MIA PaCa-2, MiaPaca2, Experiment 2, nonlinear regression least squares fit, additional experiments): 20 µM | TI on Resting PBMC (MiaPaca2 (AR low); [3]): 6 | TI on Resting PBMC (MiaPaca2 (AR low); Experiment 2): 4 | TI on Stimulated PBMC (MiaPaca2 (AR low); [3]): 7 | TI on Stimulated PBMC (MiaPaca2 (AR low); Experiment 2): 5 | IC50 (Panc1 (AR+); PANC-1, 72 h, Panc1, Experiment 1, sigmoidal dose response fit, 10 nM DHT, 3 days): 30 µM | IC50 (Panc1 (AR+); PANC-1, Panc1, Example 7, Experiment 1): 23 µM | IC50 (Panc1 (AR+); PANC-1, Panc1, Example 7, Experiment 2): 28 µM | IC50 (Panc1 (AR+); PANC-1, Panc1, Experiment 2, nonlinear regression least squares fit, additional experiments): 28 µM | TI on Resting PBMC (Panc1 (AR+); [3]): 4 | TI on Resting PBMC (Panc1 (AR+); Experiment 2): 3 | TI on Stimulated PBMC (Panc1 (AR+); [3]): 5 | TI on Stimulated PBMC (Panc1 (AR+); Experiment 2): 3 | IC50 (stimulated PBMC [1]; read-out: IC50 on Stimulated PBMC, Example 7, Experiment 1): 113 µM | IC50 (stimulated PBMC [1]; read-out: IC50 on Stimulated PBMC, Example 7, Experiment 2): 97 µM | IC50 (stimulated PBMC [1]; read-out: In vitro proliferation IC50, PBMC STIMULATED, Table IV): 97 µM | IC50 (stimulated PBMC [1]; read-out: in vitro proliferation IC50, PBMC STIMULATED, Table III): 97 µM | IC50 (resting PBMC; read-out: IC50 on Resting PBMC, Example 7, Experiment 1): 100 µM | IC50 (resting PBMC; read-out: IC50 on Resting PBMC, Example 7, Experiment 2): 85 µM | IC50 (resting PBMC; read-out: in vitro proliferation IC50, PBMC RESTING, Table III): 85 µM | Therapeutic Index = IC50 resting PBMC/IC50 cancer cell (HT29; HT29, Table IV): 6 | Therapeutic Index = IC50 stimulated PBMC/IC50 cancer cell (HT29; HT29, Table VII): 6 | IC50 (HT29; Homo sapiens, HT-29, 72 h, read-out: IC50 Calculated): 16 µM | inhibition at 0.8 µM (HT29; [4]): -1.55% | inhibition at 4 µM (HT29; [4]): 20.4% | inhibition at 20 µM (HT29; [4]): 53.6% | inhibition at 100 µM (HT29; [4]): 92.2% | inhibition at 500 µM (HT29; [4]): 92.3% | IC50 (HT29; Homo sapiens, HT-29, read-out: In vitro proliferation IC50): 16 µM | IC50 (HT29; Homo sapiens, HT-29, read-out: in vitro proliferation IC50): 13 µM | Therapeutic Index (TI), Resting PBMC (HT29; Experiment 1): 6 | Therapeutic Index (TI), Resting PBMC (HT29; Experiment 2): 5 | Therapeutic Index (TI), Stimulated PBMC (HT29; Experiment 1): 7 | Therapeutic Index (TI), Stimulated PBMC (HT29; Experiment 2): 6 | IC50 (LNCaP; 72 h): 12 µM | IC50 (LNCaP; read-out: In vitro proliferation IC50): 12 µM | IC50 (LNCaP; read-out: in vitro proliferation IC50): 12 µM | Therapeutic Index = IC50 resting PBMC/IC50 cancer cell (LNCaP; Table IV): 8 | Therapeutic Index = IC50 stimulated PBMC/IC50 cancer cell (LNCaP; Table VII): 8 | IC50 (MiaPaca2; MIA PaCa-2, 72 h): 20 µM | IC50 (MiaPaca2; MIA PaCa-2, read-out: In vitro proliferation IC50): 20 µM | IC50 (MiaPaca2; MIA PaCa-2, read-out: in vitro proliferation IC50): 20 µM | Therapeutic Index = IC50 resting PBMC/IC50 cancer cell (MiaPaca2; MiaPaca2, Table IV): 5 | Therapeutic Index = IC50 stimulated PBMC/IC50 cancer cell (MiaPaca2; MiaPaca2, Table VII): 5 | IC50 (PC3; PC-3, 72 h): 28 µM | IC50 (PC3; PC-3, read-out: In vitro proliferation IC50): 28 µM | IC50 (PC3; PC-3, read-out: in vitro proliferation IC50): 28 µM | Therapeutic Index = IC50 resting PBMC/IC50 cancer cell (PC3; PC3, Table IV): 3 | Therapeutic Index = IC50 stimulated PBMC/IC50 cancer cell (PC3; PC3, Table VII): 3 | IC50 (Panc1; PANC-1, 72 h): 28 µM | IC50 (Panc1; PANC-1, read-out: In vitro proliferation IC50): 28 µM | IC50 (Panc1; PANC-1, read-out: in vitro proliferation IC50): 28 µM | Therapeutic Index = IC50 resting PBMC/IC50 cancer cell (Panc1; Panc1, Table IV): 3 | Therapeutic Index = IC50 stimulated PBMC/IC50 cancer cell (Panc1; Panc1, Table VII): 3 | Therapeutic Index = IC50 resting PBMC/IC50 cancer cell (BxPC3; BxPC3, Table IV): 3 | Therapeutic Index = IC50 stimulated PBMC/IC50 cancer cell (BxPC3; BxPC3, Table VII): 3 | IC50 (BxPC3; BXPC-3, read-out: In vitro proliferation IC50): 28 µM | IC50 (BxPC3; BXPC-3, read-out: in vitro proliferation IC50): 28 µM | IC50 (MCF7; MCF7, 72 h): 25 µM | IC50 (MCF7; MCF7, read-out: In vitro proliferation IC50): 25 µM | IC50 (MCF7; MCF7, read-out: in vitro proliferation IC50): 25 µM | Therapeutic Index = IC50 resting PBMC/IC50 cancer cell (MCF7; MCF7, Table IV): 4 | Therapeutic Index = IC50 stimulated PBMC/IC50 cancer cell (MCF7; MCF7, Table VII): 4 | Therapeutic Index = IC50 stimulated PBMC/IC50 cancer cell, AVERAGE (7 cancer cell lines): 5 | Therapeutic Index = IC50 resting PBMC/IC50 cancer cell (stimulated PBMC [2]): 1
